Our source for the IC50 values is patent US20230113609A1, “SSTR5 ANTAGONISTS” (Kallyope, Inc., priority 2019, published 2023).

The assay concerns the target T1, human SSTR5 (Homo sapiens, UniProt P35346).
T1 construct: expressed in transfected cells
The assay can be described thus: Inositol phosphate accumulation assay (IP1 HTRF, antagonist mode). In kind it is cell-based. As to conditions: CHO-K1 cells co-expressing human SSTR5 with Gqi5, SST28 agonist at concentration generating 90% of full activation. The text has this: CHO-K1 cells stably co-expressing human SSTR5 with Gqi5 were developed using Jump-In technology from Thermo-Fisher. Gqi5 is the mouse G alpha q protein, that was modified to interact with Gi-coupled GPCRs as described previously (Coward, P.; Chan, S. D.; Wada, H. G.; Humphries, G. M.; Conklin, B. R. Chimeric G proteins Allow a High-Throughput Signaling Assay of Gi-Coupled Receptors. Anal Biochem. 1999, 270(2),242-248).
Co-expression of Gqi5 with SSTR5 allowed monitoring of SSTR5 activity by following IP1 accumulation. The assay was performed in a 384-well plate format using the IP1 assay kit from Cis-Bio in an antagonist mode, i.e., pre-incubation with antagonist following by receptor activation by agonist at a concentration generating 90% of full activation. Frozen cells expressing human SSTR5 were thawed, washed, and then plated in DMEM supplemented with 10% FBS and non-essential amino acids. 40 μL of 2.5×10^5 cells/mL were plated on a Poly D-Lysine coated 384-well white plate. The cells were then incubated for 16 hr. at 37° C/5% CO2. After 16 hour the medium was removed, and 10 μL of stimulation buffer was added to the cells. Test compounds were dissolved in DMSO at concentrations 2000-fold that of the final assay concentrations. 7.5 nLcompound solutions were transferred to the cell plates using a Labcyte Echo® acoustic liquid handler. The plates were then incubated for 15 minutes at 37° C/5%CO2. After the first incubation, 5 μL of 30 nM SST28 were added to the cells, and the cells were incubated for 90 minutes at 37° C/5%CO2. 5 μL of detection buffer (prepared as described in the IP-1 kit) was added to each well, and the plates were incubated at RT for 1 hour.
TR-FRET was measured using a ClarioSTAR plate reader, calculating the ratio between emissions at 665 nm and 620 nm (HTRF ratio). The HTRF ratio for positive (Max) and negative (Min) controls were used to normalize HTRF data and generate values for % inhibition. IC50 and maximal inhibition values were determined using a standard 4-parameter fit.

In general, IC50 refers to the concentration at which inhibition is half-maximal.

T1 sequence (P35346 whole entry): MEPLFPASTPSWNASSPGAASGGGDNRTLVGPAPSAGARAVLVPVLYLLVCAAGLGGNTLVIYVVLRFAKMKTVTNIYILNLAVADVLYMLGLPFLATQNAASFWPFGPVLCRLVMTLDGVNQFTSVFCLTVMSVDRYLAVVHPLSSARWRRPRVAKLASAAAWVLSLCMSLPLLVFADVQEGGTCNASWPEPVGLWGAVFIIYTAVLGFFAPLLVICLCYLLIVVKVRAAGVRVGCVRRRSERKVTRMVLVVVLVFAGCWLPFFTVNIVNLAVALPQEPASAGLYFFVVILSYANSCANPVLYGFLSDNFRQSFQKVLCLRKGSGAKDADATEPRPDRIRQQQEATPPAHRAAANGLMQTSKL

`CCOc1cc(CN2CCC3(CC2)CN(c2ccc(C(=O)NC[C@H](O)[C@@H](O)[C@H](O)[C@H](O)COC(=O)CCC(=O)O)cc2)C(=O)O3)cc(OCC)c1-c1ccc(F)cc1` [Example 2, 4-(((2R,3R,4R,5S)-6-(4-(8-((2,6-diethoxy-4′-fluoro-[1,1′-biphenyl]-4-yl)methyl)-2-oxo-1-oxa-3,8-diazaspiro[4.5]decan-3-yl)benzamido)-2,3,4,5-tetrahydroxyhexyl)oxy)-4-oxobutanoic acid] yielded a half-inhibitory concentration (IC50) of 100 to 1000 nM.

As to `CCOc1cc(CN2CCC3(CC2)CN(c2ccc(C(=O)NC[C@H](O)[C@@H](O)[C@H](O)[C@H](O)CO)cc2)C(=O)O3)cc(CO)c1-c1ccc(F)cc1` [Example 3, 4-(8-((2-ethoxy-4′-fluoro-6-(hydroxymethyl)-[1,1′-biphenyl]-4-yl)methyl)-2-oxo-1-oxa-3,8-diazaspiro[4.5]decan-3-yl)-N-((2S,3R,4R,5R)-2,3,4,5,6-pentahydroxyhexyl)benzamide], the 50% inhibitory concentration (IC50) is over 5000 nM.

Compound `CCOc1cc(CN2CCC3(CC2)CN(c2ccc(C(=O)NC[C@H](O)[C@@H](O)[C@H](O)[C@H](O)CO)cc2)C(=O)O3)cc(OCC)c1-c1ccc(F)cc1` [Example 4, 4-(8-((2,6-diethoxy-4′-fluoro-[1,1′-biphenyl]-4-yl)methyl)-2-oxo-1-oxa-3,8-diazaspiro[4.5]decan-3-yl)-N-((2S,3R,4R,5R)-2,3,4,5,6-pentahydroxyhexyl)benzamide] had a half-inhibitory concentration (IC50) of 100 to 1000 nM.

Take `CCOc1cc(CN2CCC3(CC2)CN(c2ccc(C(=O)NCCCC(=O)NC(CO)(CO)CO)cc2)C(=O)O3)cc(OCC)c1-c1ccc(F)cc1` [Example 5]: the 50% inhibitory concentration (IC50) is 100 to 1000 nM.

Regarding `CCOc1cc(CN2CCC3(CC2)CN(c2ccc(C(=O)NCCC[N+](C)(C)C)cc2)C(=O)O3)cc(OCC)c1-c1ccc(F)cc1` [Example 6, 3-(4-(8-((2,6-diethoxy-4′-fluoro-[1,1′-biphenyl]-4-yl)methyl)-2-oxo-1-oxa-3,8-diazaspiro[4.5]decan-3-yl)benzamido)-N,N,N-trimethylpropan-1-aminium], the IC50 lay in the range of 100 to 1000 nM.

`CCOc1cc(CN2CCC3(CC2)CN(c2ccc(C(=O)NCCNC(=O)NC(CO)(CO)CO)cc2)C(=O)O3)cc(OCC)c1-c1ccc(F)cc1` [Example 7, 4-(8-((2,6-diethoxy-4′-fluoro-[1,1′-biphenyl]-4-yl)methyl)-2-oxo-1-oxa-3,8-diazaspiro[4.5]decan-3-yl)-N-(2-(3-(1,3-dihydroxy-2-(hydroxymethyl)propan-2-yl)ureido)ethyl)benzamide] returned a 50% inhibitory concentration (IC50) of at most 100 nM.

`CCOc1cc(CN2CCC3(CC2)CN(c2ccc(C(=O)N4CC(C(=O)NCCC[N+](C)(C)C)C4)cc2)C(=O)O3)cc(OCC)c1-c1ccc(F)cc1` [Example 8, 3-(1-(4-(8-((2,6-diethoxy-4′-fluoro-[1,1′-biphenyl]-4-yl)methyl)-2-oxo-1-oxa-3,8-diazaspiro[4.5]decan-3-yl)benzoyl)azetidine-3-carboxamido)-N,N,N-trimethylpropan-1-aminium] yielded a half-inhibitory concentration (IC50) of 1000 to 5000 nM.

Compound `CCOc1cc(CN2CCC3(CC2)CN(c2ccc(C(=O)N[C@@H](CC(=O)O)C(=O)O)cc2)C(=O)O3)cc(OCC)c1-c1ccc(F)cc1` [Example 9, (4-(8-((2,6-diethoxy-4′-fluoro-[1,1′-biphenyl]-4-yl)methyl)-2-oxo-1-oxa-3,8-diazaspiro[4.5]decan-3-yl)benzoyl)-L-aspartic acid] registered a 50% inhibitory concentration (IC50) of 100 to 1000 nM.

With `CCOc1cc(CN2CCC3(CC2)CN(c2ccc(C(=O)NCCCCS(=O)(=O)O)cc2)C(=O)O3)cc(OCC)c1-c1ccc(F)cc1` [Example 10, 4-(4-(8-((2,6-diethoxy-4′-fluoro-[1,1′-biphenyl]-4-yl)methyl)-2-oxo-1-oxa-3,8-diazaspiro[4.5]decan-3-yl)benzamido)butane-1-sulfonic acid], the IC50 was at most 100 nM.

For the compound `CCOc1cc(CN2CCC3(CC2)CN(c2ccc(C(=O)NCCCS(=O)(=O)O)cc2)C(=O)O3)cc(OCC)c1-c1ccc(F)cc1` [Example 11, 3-(4-(8-((2,6-diethoxy-4′-fluoro-[1,1′-biphenyl]-4-yl)methyl)-2-oxo-1-oxa-3,8-diazaspiro[4.5]decan-3-yl)benzamido)propane-1-sulfonic acid], the IC50 was at most 100 nM.

`CCOc1cc(CN2CCC3(CC2)CN(c2ccc(C(=O)NCCS(=O)(=O)O)cc2)C(=O)O3)cc(OCC)c1-c1ccc(F)cc1` [Example 12, 2-(4-(8-((2,6-diethoxy-4′-fluoro-[1,1′-biphenyl]-4-yl)methyl)-2-oxo-1-oxa-3,8-diazaspiro[4.5]decan-3-yl)benzamido)ethane-1-sulfonic acid] returned a 50% inhibitory concentration (IC50) of over 5000 nM.

`CCOc1cc(C(=O)OC)c(C2CC2)cc1CN1CCC2(CC1)CC(=O)N(c1ccc(CC(=O)NCCNC(=O)NC(CO)(CO)CO)cc1)C2` [Example 14, methyl 2-cyclopropyl-4-((2-(4-(2-((2-(3-(1,3-dihydroxy-2-(hydroxymethyl)propan-2-yl)ureido)ethyl)amino)-2-oxoethyl)phenyl)-3-oxo-2,8-diazaspiro[4.5]decan-8-yl)methyl)-5-ethoxy benzoate] displayed an IC50 of over 5000 nM.

Consider `CCOc1cc(C(=O)OC)c(C2CC2)cc1CN1CCC2(CC1)CC(=O)N(c1ccc(C(=O)NCCCC(=O)NCCO)cc1)C2` [Example 15, methyl 2-cyclopropyl-5-ethoxy-4-((2-(4-((4-((2-hydroxyethyl)amino)-4-oxobutyl)carbamoyl)phenyl)-3-oxo-2,8-diazaspiro[4.5]decan-8-yl)methyl)benzoate], for which the IC50 is 1000 to 5000 nM.

`CCOc1cc(C(=O)OC)c(C2CC2)cc1CN1CCC2(CC1)CC(=O)N(c1ccc(C(=O)NCCNC(=O)NC(CO)CO)cc1)C2` [Example 16, methyl 2-cyclopropyl-4-((2-(4-((2-(3-(1,3-dihydroxypropan-2-yl)ureido)ethyl)carbamoyl)phenyl)-3-oxo-2,8-diazaspiro[4.5]decan-8-yl)methyl)-5-ethoxybenzoate] came in with an IC50 of over 5000 nM.

As for `CCOc1cc(C(=O)OC)c(C2CC2)cc1CN1CCC2(CC1)CC(=O)N(c1ccc(CCCC(=O)NC(C)(C)C(=O)NCCN(C)C)cc1)C2` [Example 17, methyl 2-cyclopropyl-4-((2-(4-(4-((1-((2-(dimethylamino)ethyl)amino)-2-methyl-1-oxopropan-2-yl)amino)-4-oxobutyl)phenyl)-3-oxo-2.8-diazaspiro[4.5]decan-8-yl)methyl)-5-ethoxybenzoate], the IC50 fell in the range of 1000 to 5000 nM.

`CCOc1cc(C(=O)OC)c(C2CC2)cc1CN1CCC2(CC1)CC(=O)N(c1ccc(C(=O)NCCNC(=O)NC(CO)(CO)CO)cc1)C2` [Example 18, methyl 2-cyclopropyl-4-((2-(4-((2-(3-(1,3-dihydroxy-2-(hydroxymethyl)propan-2-yl)ureido)ethyl)carbamoyl)phenyl)-3-oxo-2,8-diazaspiro[4.5]decan-8-yl)methyl)-5-ethoxybenzoate] displayed an IC50 of 100 to 1000 nM.

Take `CCOc1cc(C(=O)OC)c(C2CC2)cc1CN1CCC2(CC1)CC(=O)N(c1ccc(C(=O)NC(CO)CO)cc1)C2` [Example 19, methyl 2-cyclopropyl-4-((2-(4-((1,3-dihydroxypropan-2-yl)carbamoyl)phenyl)-3-oxo-2.8-diazaspiro[4.5]decan-8-yl)methyl)-5-ethoxybenzoate]: the IC50 lay within 100 to 1000 nM.

`CCOc1cc(C(=O)OC)c(C2CC2)cc1CN1CCC2(CC1)CC(=O)N(c1ccc(C(=O)NCCO)cc1)C2` [Example 20, methyl 2-cyclopropyl-5-ethoxy-4-((2-(4-((2-hydroxyethyl)carbamoyl)phenyl)-3-oxo-2,8-diazaspiro[4.5]decan-8-yl)methyl)benzoate] registered a concentration for half-maximal inhibition (IC50) of at most 100 nM.

The compound `CCOc1cc(C(=O)OC)c(C2CC2)cc1CN1CCC2(CC1)CC(=O)N(c1ccc(C(=O)NC(CO)(CO)CO)cc1)C2` [Example 21, methyl 2-cyclopropyl-4-((2-(4-((1,3-dihydroxy-2-(hydroxymethyl)propan-2-yl)carbamoyl)phenyl)-3-oxo-2,8-diazaspiro[4.5]decan-8-yl)methyl)-5-ethoxybenzoate] displayed an IC50 of over 5000 nM.

Take `CCOc1cc(C(=O)OC)c(C2CC2)cc1CN1CCC2(CC1)CC(=O)N(c1ccc(C(=O)NCC[N+](C)(C)C)cc1)C2` [Example 22, 2-(4-(8-(5-cyclopropyl-2-ethoxy-4-(methoxycarbonyl)benzyl)-3-oxo-2,8-diazaspiro[4.5]decan-2-yl)benzamido)-N,N,N-trimethylethan-1-aminium]: the IC50 lay in the range of 1000 to 5000 nM.

`CCOc1cc(C(=O)OC)c(C2CC2)cc1CN1CCC2(CC1)CC(=O)N(c1ccc(C(=O)NCCCC(=O)O)cc1)C2` [Example 23, 4-(4-(8-(5-cyclopropyl-2-ethoxy-4-(methoxycarbonyl)benzyl)-3-oxo-2,8-diazaspiro[4.5]decan-2-yl)benzamido) butanoic acid] displayed an IC50 of over 5000 nM.
